Measurements from BindingDB's records for doi:10.1016/j.bmcl.2005.08.072 (Merck Research Laboratories, 2005).

Target: T1, Dimer of Gag-Pol polyprotein [489-587,Q496K] (Human immunodeficiency virus 1, UniProt P12497, Q496K)
T1 construct: 489-587
Test: Protease Inhibition Assay
Settings: pH 5.5; 30 °C
Experimental: Assay of HIV protease inhibition was performed by peptide cleavage using the substrate Val-Ser-Gln-Asn-beta-naphthylalanine*Pro-Ile-Val. Products of the cleavage reaction were quantified by HPLC detection, and data were fit to nonlinear least squares equations for determination of steady-state Michaelis-Menten kinetics.

`CC(C)(c1ncc(-c2ccc(Cl)cc2)o1)N1CCN(C[C@@H](O)C[C@@H](Cc2cc3ccncc3s2)C(=O)N[C@H]2c3ccccc3OC[C@H]2O)[C@H](C(=O)NCC(F)(F)F)C1` [(2S)-4-{2-[5-(4-chlorophenyl)-1,3-oxazol-2-yl]propan-2-yl}-1-[(2S,4S)-2-hydroxy-4-{[(3S,4S)-3-hydroxy-3,4-dihydro-2H-1-benzopyran-4-yl]carbamoyl}-4-{thieno[2,3-c]pyridin-2-ylmethyl}butyl]-N-(2,2,2-trifluoroethyl)piperazine-2-carboxamide] showed an IC50 of less than 20 pM.
Work on `CC(C)(c1ncc(-c2ccc(Cl)cc2)o1)N1CCN(C[C@@H](O)C[C@@H](Cc2cc3c(Cl)cncc3s2)C(=O)N[C@H]2c3ccccc3OC[C@H]2O)[C@H](C(=O)NCC(F)(F)F)C1` [(2S)-4-{2-[5-(4-chlorophenyl)-1,3-oxazol-2-yl]propan-2-yl}-1-[(2S,4S)-4-({4-chlorothieno[2,3-c]pyridin-2-yl}methyl)-2-hydroxy-4-{[(3S,4S)-3-hydroxy-3,4-dihydro-2H-1-benzopyran-4-yl]carbamoyl}butyl]-N-(2,2,2-trifluoroethyl)piperazine-2-carboxamide] yielded an IC50 of less than 20 pM.
